The values below come from patent US8552013B2, “Heterocyclic compounds based on N6-substituted adenine, methods of their preparation, their use for preparation of drugs, cosmetic preparations and growth regulators, pharmaceutical preparations, cosmetic preparations and growth regulators containing these compounds” (USTAV Experimentalni Botaniky Akademie Ved Ceske Republiky, priority 2001, dated 2013).

For assay [1], the system named is human diploid fibroblasts (HCA cells). Nature of the assay: Senescence, beta-galactosidase staining of human diploid fibroblasts. Format: cell-based. The note with it: for SENESCENT CELLS (%) HCA25: passage 25; for SENESCENT CELLS (%) HCA45: passage 45; for SENESCENT CELLS (%) HCA80: passage 80. The procedure: In this example, human diploid fibroblasts (HCA cells of various passage levels: passage 25—designated HCA25; passage 45—designated HCA45; passage 80—designated HCA80) were stained for β-galactosidase activity. The medium used for cell cultivation was removed, the cells were washed twice in […], and fixed in 2-3 ml of fixing solution comprised of a 2% formaldehyde and 0.2% glutaraldehyde in PBS. The cells were incubated at room temperature for 5 minutes, then washed twice with PBS. The cells were subsequently incubated at 37° C. (without CO2) for 1 to 16 hours in 2-3 ml of a solution comprising potassium ferricyanide (5 mM), potassium ferrocyanide (5 mM), MgCl2 (2 mM), X-gal (5-bromo-4-chloro-3-indolyl-β-D-galactopyranoside) (1 mg/ml), in citric/phosphate buffer, pH 6.0). […] In this experiment, senescent cells, but not other cells were stained blue due to the action of β-galactosidase on the substrate (FIG. 4).

In assay [2] the test system is Triticum aestivum cv. Hereward leaf tips. The experiment in a line: Retention of chlorophyll in excised wheat leaf tips. Particulars: for Activity (%) [10^−4 mol · l^−1 BAP = 100%]: chlorophyll retention at the concentration with highest activity. The assay is classed as in vivo. The procedure: Seeds of winter wheat, Triticum aestivum cv. Hereward, were washed under running water for 24 hours and then sown on vermiculite soaked with Knop's solution. They were placed in the grown chamber at 25° C. with a 16/8 h light period at 50 μmol.m^−2.s^−1. After 7 days, the first leaf was fully developed and the second leaf had started to grow. A tip section of the first leaf, approximately 35 mm long, was removed from 5 seedlings and trimmed slightly to a combined weight of 100 mg. The basal ends of the five leaf tips were placed in the wells of a microtiter polystyrene plate containing 150 μl of a cytokinin solution each. The entire plate was inserted into a plastic box lined with paper tissues soaked in distilled water to prevent leaf sections from drying out. After a 96 h incubation in the dark at 25° C., the leaves were removed and chlorophyll extracted by heating at 80° C. for 10 min in 5 ml of 80% ethanol (v/v). The sample volume was then restored to 5 ml by the addition of 80% ethanol (v/v). The absorbency of the extract was recorded at 665 nm. In addition, chlorophyll extracts from fresh leaves and leaf tips incubated in deionised water were measured. From the obtained data, the concentration with highest activity was selected for each compound tested. Relative activity of the compound at this concentration was calculated (Tab. 6). The activity obtained for 10^−4 M 6-benzylaminopurine (BAP) was postulated as 100%. The values shown are means of five replicates and the whole experiment was repeated twice. The cytokinins to be tested were dissolved in dimethylsulfoxide (DMSO) and the solution brought up to 10^−3M with distilled water. This stock was further diluted in distilled water to concentrations ranging from 10^−8M to 10^−4M.

For assay [3], the system named is Amaranthus caudatus cotyledon/hypocotyl explants. The experiment in a line: Amaranthus bioassay, betacyanin content. The assay is classed as in vivo. Particulars: betacyanin content at the concentration with highest activity. The procedure:
Standard Amaranthus bioassay was performed with several modifications. The seeds of Amaranthus caudatus var. atropurpurea were surface-sterilised in 10% N-chlorobenzenesulfonamide (w/v) for 10 min and washed 5 times in deionized water. They were placed in 14 cm Petri dishes containing paper tissues saturated with deionized water. After 72 h of cultivation at 25° C. in darkness, the roots of the seedlings were cut off. The explants, consisting of two cotyledons and hypocotyls, were placed in 5 cm Petri dishes on two layers of filter paper soaked in 1 ml of incubation medium containing 10 μmol NA2HPO4-KH2PO4, pH 6.8, 5 μmol tyrosine and the cytokinin to be tested. There were 20 explants per dish. The procedure was carried out under a green safe light in a darkroom. After a 48 h of incubation at 25° C. in darkness, betacyanin was extracted by freezing the explants in 4 ml […] acetic acid. The concentration of betacyanin was determined by comparing the absorbance at 537 nm and 620 nm as follows: ΔA=[…] nm-A620 nm. From the obtained data, the concentration with highest activity was selected for each compound tested. Relative activity of the compound at this concentration was calculated (Tab. 6). […] The values shown in table 8 are means of five replicates and the entire test was repeated twice. The cytokinins to be tested were dissolved in dimethylsulfoxide (DMSO) and the solution brought up to 10^-3M with distilled water. This stock was further diluted in the respective media used for the biotest to concentrations ranging from 10^-8M to 10^-4M.

For assay [4], the system named is tobacco callus Nicotiana tabacum L. cv. Wisconsin 38. Nature of the assay: Cytokinin-dependent tobacco callus growth. Particulars: fresh callus weight at the concentration with highest activity. Format: cell-based. The procedure: Cytokinin-dependent tobacco callus Nicotiana tabacum L. cv. Wisconsin 38 was maintained at 25° C. in darkness on modified Murashige-Skoog medium, containing per 1 liter: 4 μmol nicotinic acid, 2.4 μmol pyridoxine hydrochloride, 1.2 μmol thiamine, 26.6 μmol glycine, 1.37 μmol glutamine, 1.8 μmol myo-inositol, 30 g of sucrose, 8 g of agar, 5.37 μmol α-naphtylacetic acid (NAA) and 0.5 μmol benzylaminopurine (BAP). Subcultivation was carried out every three weeks. Fourteen days before the bioassay, the callus tissue was transferred to the media without 6-benzylaminopurine (BAP). Biological activity was determined from the increase in fresh callus weight after four weeks of cultivation. Five replicates were prepared for each cytokinin concentration and the entire test was repeated twice. From the obtained data, the concentration with highest activity was selected for each compound tested. Relative activity of the compound at this concentration was calculated (Tab. 6). The activity obtained for 10^−4 M 6-benzylaminopurine (BAP) was postulated as 100%. The cytokinins to be tested were dissolved in dimethylsulfoxide (DMSO) and the solution brought up to 10^−3M with distilled water. This stock was further diluted in the respective media used for the biotest to concentrations ranging from 10^−8M to 10^−4M.

Molecules are shown by their SMILES.

Turning to `NCc1ccc(Cl)c(N)c1N` [2,3-diamino-4-chlorobenzylamine], in assay [1], the “SENESCENT CELLS (%) HCA25” value amounted to 4%, the “SENESCENT CELLS (%) HCA45” value worked out at 3% and the “SENESCENT CELLS (%) HCA80” value came out at 17%.

Turning to `Oc1c(Cl)ccc(CNc2ncnc3nc[nH]c23)c1O` [2,3-dihydroxy-4-chlorobenzylamino, 6-(2,3-dihydroxy-4-chlorobenzylamino)purine], in assay [1], the “SENESCENT CELLS (%) HCA25” value is given as 3%, the “SENESCENT CELLS (%) HCA45” value turned out to be 3% and the “SENESCENT CELLS (%) HCA80” value came to 14%.

On to `COc1ccc(CNc2ncnc3nc[nH]c23)c(O)c1O` [2,3-dihydroxy-4-methoxybenzylamino, 6-(2,3-dihydroxy-4-methoxybenzylamino)purine], for which, in assay [1], the “SENESCENT CELLS (%) HCA25” value is 3%, the “SENESCENT CELLS (%) HCA45” value worked out at 4% and the “SENESCENT CELLS (%) HCA80” value is reported as 17%.

Turning to `Oc1cc(CNc2ncnc3nc[nH]c23)c(O)cc1Cl` [2,5-dihydroxy-4-chlorobenzylamino, 6-(2,5-dihydroxy-4-chlorobenzylamino)purine], in assay [1], the “SENESCENT CELLS (%) HCA25” value amounted to 5%, the “SENESCENT CELLS (%) HCA45” value came out at 4% and the “SENESCENT CELLS (%) HCA80” value was found to be 23%.

Regarding `COc1cc(O)c(CNc2ncnc3nc[nH]c23)cc1O` [2,5-dihydroxy-4-methoxybenzylamino, 6-(2,5-dihydroxy-4-methoxybenzylamino)purine], in assay [1], the “SENESCENT CELLS (%) HCA25” value was found to be 5%, the “SENESCENT CELLS (%) HCA45” value was determined as 3% and the “SENESCENT CELLS (%) HCA80” value is recorded as 22%.

As for `Oc1cc(Cl)cc(O)c1CNc1ncnc2nc[nH]c12` [2,6-dihydroxy-4-chlorobenzylamino, 6-(2,6-dihydroxy-4-chlorobenzylamino)purine], in assay [1], the “SENESCENT CELLS (%) HCA25” value is 3%, the “SENESCENT CELLS (%) HCA45” value is 3% and the “SENESCENT CELLS (%) HCA80” value was found to be 16%.

For `COc1cc(O)c(CNc2ncnc3nc[nH]c23)c(O)c1` [2,6-dihydroxy-4-methoxybenzylamino, 6-(2,6-dihydroxy-4-methoxybenzylamino)purine], in assay [1], the “SENESCENT CELLS (%) HCA25” value is reported as 4%, the “SENESCENT CELLS (%) HCA45” value was determined as 3% and the “SENESCENT CELLS (%) HCA80” value is given as 13%.

Regarding `CC(=O)Oc1ccccc1CNc1ncnc2nc[nH]c12` [2-acetoxybenzylamino, 6-(2-acetoxybenzylamino)purine], in assay [1], the “SENESCENT CELLS (%) HCA25” value was 6%, the “SENESCENT CELLS (%) HCA45” value was determined as 5% and the “SENESCENT CELLS (%) HCA80” value is 32%.

`CC(=O)c1ccccc1CNc1ncnc2nc[nH]c12` [2-acetylbenzylamino, 6-(2-acetylbenzylamino)purine]: in assay [1], the “SENESCENT CELLS (%) HCA25” value is listed as 3%, the “SENESCENT CELLS (%) HCA45” value stood at 4% and the “SENESCENT CELLS (%) HCA80” value was determined as 25%.

Consider `Nc1nc(NCc2cccc(O)c2)c2[nH]cnc2n1` [2-amino-6-(3-hydroxybenzylamino)purine], for which the “Activity (%) [10^−4 mol · l^−1 BAP = 100%]” value in assay [2] was 121 (±7) %.

Take `Nc1cccc(Cl)c1CNc1ncnc2nc[nH]c12` [2-amino-6-chlorobenzylamine, 6-(2-amino-6-chlorobenzylamino)purine]: in assay [1], the “SENESCENT CELLS (%) HCA25” value is 3%, the “SENESCENT CELLS (%) HCA45” value is recorded as 4% and the “SENESCENT CELLS (%) HCA80” value came out at 16%.

With `Oc1cccc(CNc2nc(Cl)nc3nc[nH]c23)c1` [2-chlor-6-(3-hydroxybenzylamino)purine], in assay [2], the “Activity (%) [10^−4 mol · l^−1 BAP = 100%]” value was 140 (±13) %. The “concentration with highest activity” value in assay [2] (wheat leaf tips, 96 h in the dark) was 10^−4 mol · l^−1.

Regarding `Oc1c(Cl)cccc1CNc1ncnc2nc[nH]c12` [2-hydroxy-3-chlorobenzylamino, 6-(2-hydroxy-3-chloroxybenzylamino)purine], in assay [1], the “SENESCENT CELLS (%) HCA25” value was 4%, the “SENESCENT CELLS (%) HCA45” value is 3% and the “SENESCENT CELLS (%) HCA80” value came to 14%.

Regarding `CSc1nc(NCc2cccc(O)c2)c2[nH]cnc2n1` [2-methylthio-6-(3-hydroxybenzylamino)purine], the “Activity (%) [10^−4 mol · l^−1 BAP = 100%]” value in assay [2] is given as 50.5 (±23.5) %.

Turning to `CC(=O)Oc1cccc(CNc2ncnc3nc[nH]c23)c1` [3-acetoxybenzylamino, 6-(3-acetoxybenzylamino)purine], in assay [1], the “SENESCENT CELLS (%) HCA25” value is 4%, the “SENESCENT CELLS (%) HCA45” value is 6% and the “SENESCENT CELLS (%) HCA80” value was 27%.

As to `CC(=O)c1cccc(CNc2ncnc3nc[nH]c23)c1` [3-acetylbenzylamino, 6-(3-acetylbenzylamino)purine], in assay [1], the “SENESCENT CELLS (%) HCA25” value was 5%, the “SENESCENT CELLS (%) HCA45” value was found to be 5% and the “SENESCENT CELLS (%) HCA80” value is reported as 28%.

Take `Nc1cc(CNc2ncnc3nc[nH]c23)ccc1Cl` [3-amino-4-chlorobenzylamine, 6-(3-amino-4-chlorobenzylamino)purine]: in assay [1], the “SENESCENT CELLS (%) HCA25” value was determined as 5%, the “SENESCENT CELLS (%) HCA45” value was determined as 5% and the “SENESCENT CELLS (%) HCA80” value is given as 22%.

Turning to `O=C(O)c1cc(Nc2ncnc3nc[nH]c23)ccc1O` [3-carboxy-4-hydroxyanilino, 6-(3-carboxy-4-hydroxyanilino)purine], in assay [1], the “SENESCENT CELLS (%) HCA25” value was found to be 4%, the “SENESCENT CELLS (%) HCA45” value is on record as 2% and the “SENESCENT CELLS (%) HCA80” value came out at 26%.

In the case of `O=C(O)c1ccc(Nc2ncnc3nc[nH]c23)cc1Cl` [3-chloro-4-carboxyanilino, 6-(3-chloro-4-carboxyanilino)purine], in assay [1], the “SENESCENT CELLS (%) HCA25” value was found to be 5%, the “SENESCENT CELLS (%) HCA45” value is reported as 2% and the “SENESCENT CELLS (%) HCA80” value was 25%.

Take `COc1cccc(CNc2ncnc3nc[nH]c23)c1OC` [6-(2,3-dimethoxybenzylamino)purine]: the “activity (%) [10^−5 mol · l^−1 BAP = 100%]” value in assay [3] is 22 (±3) %. Besides, the figures for the “Activity (%) [10^−4 mol · l^−1 BAP = 100%]” value in assay [4] and in assay [2] were 8.5 (±2) % and 109 (±5) %, respectively.

For the molecule `Clc1ccc(CNc2ncnc3nc[nH]c23)c(Cl)c1` [6-(2,4-dichlorobenzylamino)purine], the “activity (%) [10^−5 mol · l^−1 BAP = 100%]” value in assay [3] is 19 (±8) %. Further, the results for the “Activity (%) [10^−4 mol · l^−1 BAP = 100%]” value in assay [4] and in assay [2] were 11 (±3) % and 0%, respectively.

For the molecule `COc1ccc(CNc2ncnc3nc[nH]c23)cc1OC` [6-(3,4-dimethoxybenzylamino)purine], in assay [3], the “activity (%) [10^−5 mol · l^−1 BAP = 100%]” value is given as 27 (±6) %. Moreover, in assay [2], the “Activity (%) [10^−4 mol · l^−1 BAP = 100%]” value is listed as 43 (±17) %.

As to `c1ccc(Nc2ncnc3nc[nH]c23)cc1` [Anilino, 6-anilinopurine], in assay [1], the “SENESCENT CELLS (%) HCA25” value was 3%, the “SENESCENT CELLS (%) HCA45” value came out at 4% and the “SENESCENT CELLS (%) HCA80” value amounted to 27%.
